A value given as a limit tells only on which side of the number the result lay.

Assay [1] deals with T1, M3 muscarinic receptor subtype (hM3) (Homo sapiens, UniProt P20309).
T1 construct: expressed in transfected cells
Briefly: Radioligand binding assay ([3H]-NMS displacement, CHO cell membranes). Particulars: [3H]-NMS 1 nM, 60 minutes at 37° C. As to the method:
A. Membrane Preparation from Cells Expressing hM1, hM2, hM3 and hM4 Muscarinic Receptor Subtypes
CHO cell lines stably expressing cloned human hM1, hM2, hM3 and hM4 muscarinic receptor subtypes, respectively, were grown to near confluency in medium consisting of HAM's F-12 supplemented with 10% FBS and 250 μg/mL Geneticin. The cells were grown in a 5% CO2, 37° C. incubator and lifted with 2 mM EDTA in dPBS. Cells were collected by 5 minute centrifugation at 650×g, and cell pellets were either stored frozen at −80° C. or membranes were prepared immediately. For membrane preparation, cell pellets were resuspended in lysis buffer and homogenized with a Polytron PT-2100 tissue disrupter (Kinematica AG; 20 seconds×2 bursts). […] The protein concentration of the membrane suspension was determined by the method described in Lowry, O. et al., […] 193:265 (1951). […]
Radioligand binding assays were performed in 96-well microtiter plates in a total assay volume of 100 μL. […] Filter plates were rinsed three times with wash buffer (10 mM HEPES) to remove unbound radioactivity. […] The plates were then counted in a PerkinElmer Topcount liquid scintillation counter (PerkinElmer Inc., Wellesley, Mass.). Binding data were analyzed by nonlinear regression analysis with the GraphPad Prism Software package (GraphPad Software, Inc., San Diego, Calif.) using the one-site competition model. […]

Assay [2] addresses T2, hM2 receptor (Homo sapiens, UniProt P08172).
T2 construct: expressed in transfected cells; host or cells: CHO-K1 cells
T2 sequence (P08172 1-466): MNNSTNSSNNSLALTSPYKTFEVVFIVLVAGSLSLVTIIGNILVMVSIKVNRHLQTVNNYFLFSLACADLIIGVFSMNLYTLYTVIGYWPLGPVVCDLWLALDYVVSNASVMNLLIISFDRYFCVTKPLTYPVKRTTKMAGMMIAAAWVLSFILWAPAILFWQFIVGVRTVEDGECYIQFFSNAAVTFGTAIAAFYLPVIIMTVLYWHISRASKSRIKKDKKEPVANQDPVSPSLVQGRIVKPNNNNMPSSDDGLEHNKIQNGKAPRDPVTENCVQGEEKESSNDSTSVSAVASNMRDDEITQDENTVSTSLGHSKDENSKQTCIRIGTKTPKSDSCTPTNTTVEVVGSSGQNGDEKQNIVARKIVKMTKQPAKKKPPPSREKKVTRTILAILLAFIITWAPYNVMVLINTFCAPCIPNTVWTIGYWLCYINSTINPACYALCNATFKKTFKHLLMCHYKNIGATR
Briefly: Blockade of agonist-mediated [35S]GTPγS binding. Format: biochemical. Particulars: CHO-K1 cells expressing the hM2 receptor (membranes); read-out: Ki value for blockade of oxotremorine-stimulated [35S]GTPγS binding. As to the method: B. Blockade of Agonist-Mediated [^35 S]GTPγS Binding
In a second functional assay, the functional potency of a test compound is determined by measuring the ability of the compound to block oxotremorine-stimulated [^35S]GTPγS binding in CHO-K1 cells expressing the hM2 receptor.
At the time of use, frozen membranes were thawed and then diluted in assay buffer with a final target tissue concentration of 5-10 μg protein per well. The membranes were briefly homogenized using a Polytron PT-2100 tissue disrupter and then added to the assay plates.
The EC90 value (effective concentration for 90% maximal response) for stimulation of [^35S]GTPγS binding by the agonist oxotremorine was determined in each experiment.
The assay plates were then incubated at 37° C. for 60 minutes. The assay plates were filtered over 1% BSA-pretreated GF/B filters using a PerkinElmer 96-well harvester. The plates were rinsed with ice-cold wash buffer for 3×3 seconds and then air or vacuum dried. Microscint-20 scintillation liquid (50 μL) was added to each well, and each plate was sealed and radioactivity counted on a topcounter (PerkinElmer). Data were analyzed by nonlinear regression analysis with the GraphPad Prism Software package (GraphPad Software, Inc., San Diego, Calif.) using the non-linear regression, one-site competition equation. […]
For orientation: GTPγS resists hydrolysis and so accumulates on activated G proteins.

T1 sequence (P20309 whole entry): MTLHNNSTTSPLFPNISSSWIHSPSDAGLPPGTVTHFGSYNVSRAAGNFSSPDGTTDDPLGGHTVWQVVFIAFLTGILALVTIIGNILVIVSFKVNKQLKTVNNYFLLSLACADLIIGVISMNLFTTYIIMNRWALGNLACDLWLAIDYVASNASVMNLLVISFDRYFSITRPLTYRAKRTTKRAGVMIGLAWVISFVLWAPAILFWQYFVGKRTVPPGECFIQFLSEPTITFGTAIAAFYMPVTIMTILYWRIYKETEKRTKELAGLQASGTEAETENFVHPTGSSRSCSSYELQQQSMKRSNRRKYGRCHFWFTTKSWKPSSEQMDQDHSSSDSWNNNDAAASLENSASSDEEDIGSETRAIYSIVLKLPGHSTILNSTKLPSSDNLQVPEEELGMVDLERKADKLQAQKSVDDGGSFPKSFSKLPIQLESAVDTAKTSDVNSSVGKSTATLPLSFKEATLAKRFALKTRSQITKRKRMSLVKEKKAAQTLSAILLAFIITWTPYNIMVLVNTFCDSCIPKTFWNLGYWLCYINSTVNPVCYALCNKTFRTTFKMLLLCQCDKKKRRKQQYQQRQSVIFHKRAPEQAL

On to `CNCCCCCCCCN1CC[C@@H](C(C(N)=O)(c2ccccc2)c2ccccc2)C1` [compound of formula I, 2-[(S)-1-(8-methylaminooctyl)pyrrolidin-3-yl]-2,2-diphenylacetamide], for which the Ki (commonly the dissociation constant of the complex between target and ligand, obtained from inhibition or displacement) is approximately 960 pM in assay [1] and less than 5000 pM in assay [2].

Values taken from patent publication US7524880B2, “Crystalline form of a substituted pyrrolidine compound” (Theravance, Inc., priority 2004, dated 2009).
